From article PMC5817852 (The Open Medicinal Chemistry Journal, 2018)
Where two headings read alike, the source gives them in different places.

What was measured:
[1] = system: HT29 colorectal carcinoma; experiment: qHTS cell viability screen (Cell Titer Glo), HT29; type: cell-based
[2] = system: Cell line 697 (ALL in relapse); experiment: Additional cancer cell line panel, 697; type: cell-based, human; settings: confidence intervals in parentheses, NA: not active
Text: (§1) Most analogs in the presented series are lipophilic while also containing a positively charged amine. Lipophilic basic amines can accumulate in cell membranes if their lipophilic atom groups form favorable non-polar contacts with lipid chains while their charged amine is interacting with fatty acid head groups. Such association with lipids can lead to cytotoxicity through membrane destabilization. Therefore, we evaluated a number of representative compounds against BJ cells, a normal human foreskin fibroblast cell line, where cytotoxicity was determined at 10 µM drug concentration, as described previously.
(§2) minimum locked at 0 and 100 respectively.
(§3) children with ALL in relapse.
(§4) foreskin fibroblast cell line (BJ).
(§5) Table 2. […] SSA: Sulindac sulfide

[3] = system: Acute T cell leukemia Jurkat e6-1 cells (JURKT); experiment: Additional cancer cell line panel, JURKT; type: cell-based; settings: confidence intervals in parentheses, NA: not active
[4] = system: RAJI cells (Burkitt's leukaemia/lymphoma); experiment: Additional cancer cell line panel, RAJI; type: cell-based; settings: confidence intervals in parentheses, NA: not active
[5] = system: PC3 prostate cancer cell line; experiment: qHTS cell viability screen (Cell Titer Glo), PC3; type: cell-based; settings: for CC50: read-out: CC50 PC3
[6] = system: REH cells (precursor B-cell ALL); experiment: Additional cancer cell line panel, REH; type: cell-based, human; settings: read-out: EC50 REH
[7] = system: BJ cells, normal human foreskin fibroblast cell line; experiment: BJ cell cytotoxicity counter screen
Text: as §1, §2, §3, §4, §5

[8] = system: MDA-MB-231 breast cancer cell line; experiment: qHTS cell viability screen (Cell Titer Glo), MDA-MB-231; type: cell-based
[9] = system: NALM16 cell line (acute lymphoblastic leukemia); experiment: Additional cancer cell line panel, NALM16; type: cell-based, human; settings: confidence intervals in parentheses, NA: not active
[10] = BJ cell cytotoxicity counter screen; settings: human
Text: as §1, §2, §3, §4, §5

COX-2 = system: COX-2; design: method as in PMID 19470791; settings: cited from earlier work
COX-1 = system: COX-1; design: method as in PMID 19470791; settings: cited from earlier work
[11] = confidence intervals in parentheses, NA: not active
[12] = read-out: EC50 BJ (cytotoxicity), BJ normal human foreskin fibroblasts, confidence intervals in parentheses
[13] = 72 h, PC3 prostate, 72 hours, cell viability Cell Titer Glo
[14] = PC3 prostate, 72 hours, cell viability Cell Titer Glo
[15] = Homo sapiens, REH, confidence intervals in parentheses, NA: not active
[16] = BJ cells (normal human foreskin fibroblast cell line)
[17] = Homo sapiens, MDA-MB-231, 96 h, MDA-MB-231 breast, 96 hours, cell viability Cell Titer Glo, read-out: CC50 MDA-MB-231
[18] = MDA-MB-231 breast, 96 hours, cell viability Cell Titer Glo, read-out: CC50 MDA-MB-231
[19] = Homo sapiens, HT-29, 72 h, HT29 colorectal carcinoma, 72 hours, cell viability Cell Titer Glo, read-out: CC50 HT29

| EC50 [9] | EC50 [6, 15] | Molecule | CC50 [5, 13] | CC50 [5, 14] | EC50 [10, 16] | CC50 [8, 17] | CC50 [8, 18] | also measured |
| --- | --- | --- | --- | --- | --- | --- | --- | --- |
| – | 53 µM | COc1cc(/C=C2/C(C)=C(CNC(=O)[C@@H](N)CO)c3cc(F)ccc32)cc(OC)c1OC [Compound 30] | 26.5 ± 6.01 µM | – | > 22.7 µM | 11.9 ± 2.27 µM | – | CC50 [1, 19]: 11.1 ± 1.35 µM; melting point: 118 to 120 °C |
| – | 21 µM | COc1cc(/C=C2/C(C)=C(CNC(=O)[C@@H](N)C(C)C)c3cc(F)ccc32)cc(OC)c1OC [Compound 32] | < 10 µM | 8.11 ± 0.41 µM | > 22.7 µM | < 10 µM | 7.3 ± 0.73 µM | EC50 ([4]; Homo sapiens, Raji): 110 µM |
| – | 38 µM | COc1cc(/C=C2/C(C)=C(CNC(=O)[C@@H]3CCCN3)c3cc(F)ccc32)cc(OC)c1OC [Compound 33] | 11.9 ± 1.56 µM | – | > 22.7 µM | 8.2 ± 0.99 µM | – | CC50 [1, 19]: 5.67 ± 1.67 µM; EC50 ([3]; Homo sapiens, Jurkat E6.1): 33 µM; melting point: 64 to 66 °C |
| 0.051 µM | – | CSc1ccc(/C=C2/C(C)=C(CN(Cc3ccncc3)Cc3ccncc3)c3cc(F)ccc32)cc1 [Compound 49] | – | 12.7 ± 1.44 µM | – | – | – | CC50 [1]: 10.8 ± 1.84 µM; EC50 [7]: > 22.7 µM; CC50 [8]: 9.5 ± 2.14 µM |
| 32 µM | – | COc1cc(/C=C2/C(C)=C(CN(Cc3ccncc3)Cc3ccncc3)c3cc(F)ccc32)cc(OC)c1OC [Compound 56] | – | 9.09 ± 0.87 µM | – | – | – | EC50 [4]: 58 µM; EC50 [6, 11]: 32 µM; EC50 [7]: > 22.7 µM |

Continued, molecule first:

| Molecule | EC50 [9] | EC50 [6, 15] | CC50 [5, 13] | CC50 [5, 14] | EC50 [10, 16] | CC50 [8, 17] | CC50 [8, 18] | also measured |
| --- | --- | --- | --- | --- | --- | --- | --- | --- |
| 3,4,5-trimethoxybenzylidene-3-indenylmethyl-2-phenylacetamide [Compound 26] | 8.1 µM | – | – | – | – | – | – | increased anticancer activity in comparison with SSA, colon cancer cells ([1]; versus SSA): 6-7 fold; EC50 [2]: 15 µM; EC50 [3]: 11 µM; EC50 [4]: 8.3 µM; increased anticancer activity in comparison with SSA, prostate cancer cells ([5]; versus SSA): 6-7 fold; EC50 [6, 11]: 19 µM; EC50 [7, 12]: > 22.7 µM; increased anticancer activity in comparison with SSA, breast cancer cells ([8]; versus SSA): 27 fold |
| CSc1ccc(/C=C2/C(C)=C(CNC(=O)[C@@H](N)CC(C)C)c3cc(F)ccc32)cc1 [Compound 23] | – | 16 µM | < 10 µM | 6.21 ± 0.49 µM | 16.4 µM | < 10 µM | 6.7 ± 0.71 µM | EC50 ([9]; Homo sapiens, NALM16): 30 µM |
| CSc1ccc(/C=C2/C(C)=C(CNC(=O)[C@@H](N)C(C)C)c3cc(F)ccc32)cc1 [Compound 24] | – | 14 µM | < 10 µM | 5.16 ± 0.5 µM | 16.7 µM | < 10 µM | 6.81 ± 0.63 µM | EC50 ([2]; Homo sapiens): 16 µM; EC50 ([3]; Homo sapiens, Jurkat E6.1): 15 µM; EC50 ([4]; Homo sapiens, Raji): 39 µM; melting point: 133 to 135 °C |
| COc1cc(/C=C2/C(C)=C(CNC(=O)CN)c3cc(F)ccc32)cc(OC)c1OC [Compound 29] | 230 µM | – | – | 17.9 ± 2.08 µM | – | – | 9.92 ± 2.13 µM | CC50 ([1]; HT29 colorectal carcinoma, 72 hours, cell viability Cell Titer Glo, read-out: CC50 HT29): 8.51 ± 1.7 µM; EC50 [7, 12]: > 22.7 µM |
| COc1cc(/C=C2/C(C)=C(CNC(=O)[C@@H](N)CC(C)C)c3cc(F)ccc32)cc(OC)c1OC [Compound 31] | – | – | – | – | – | – | – | CC50 ([1]; Homo sapiens, HT-29, 72 h, read-out: CC50 HT29): 5.21 ± 0.39 µM; CC50 ([5]; 72 h): 12 ± 1.47 µM; EC50 ([6]; Homo sapiens, REH): 16 µM; EC50 [10]: > 22.7 µM; CC50 ([8]; Homo sapiens, MDA-MB-231, 96 h, read-out: CC50 MDA-MB-231): 8.87 ± 1.38 µM |
| CSc1ccc(/C=C2/C(C)=C(CC(=O)NCCN(C)C)c3cc(F)ccc32)cc1 [SSA, Sulindac sulfide amide, reference compound] | – | – | 3.12 ± 0.15 µM | – | – | 2.67 ± 0.08 µM | – | CC50 [1, 19]: 0.65 ± 0.03 µM; activity against COX-2 (COX-2): no activity; activity against COX-1 (COX-1): no activity; EC50 [7, 12]: > 7.57 µM |
